For 2 compounds, Kd results are on record in publication doi:10.1101/2022.08.09.503277v2 (biorxiv, 2022).

Molecules are shown by their SMILES.

In this assay the target is ECD-AT1G56145 (IGP1) (Arabidopsis thaliana, UniProt F4I3K3). Description: isothermal titration calorimetry. The format is binding. Conditions: 20 mM sodium citrate pH 5.0, 150 mM NaCl, 25 °C; single site, N fixed to 1.

One may read the Kd as a measure of binding affinity in units of concentration. The low end stands for higher affinity, the high end for lower affinity. Regarding `OC[C@H]1O[C@@H](O[C@H]2[C@H](O)[C@@H](O)[C@H](O[C@H]3[C@H](O)[C@@H](O)[C@H](O[C@H]4[C@H](O)[C@@H](O)[C@H](O[C@H]5[C@H](O)[C@@H](O)C(O)O[C@@H]5CO)O[C@@H]4CO)O[C@@H]3CO)O[C@@H]2CO)[C@H](O)[C@@H](O)[C@@H]1O` (some centres unmarked) [CEL5], the Kd came out at 1400 ± 10 nM. The figure for `OC[C@H]1O[C@@H](O[C@H]2[C@H](O)[C@@H](O)[C@H](O[C@H]3[C@H](O)[C@@H](O)C(O)O[C@@H]3CO)O[C@@H]2CO)[C@H](O)[C@@H](O)[C@@H]1O` (some centres unmarked) [CEL3] is 1190 ± 30 nM.
